Source: the NIST ThermoML archive (doi:10.1021/je700499d)

How the values were obtained:
[1] = 101 kPa, Liquid
[2] = xn = mol fraction of the nth substance listed; conditions: 101 kPa, Liquid

OCCO [1,2-ethanediol]
[1]
Conditions | mass density [kg/m3]
293.15 K | 1113.55
303.15 K | 1106.82
313.15 K | 1099.8
323.15 K | 1092.59

OCCCCO [1,4-butanediol] + CC(O)CO
mass density [kg/m3], [2]
Conditions | x1 = 0.0858 | x1 = 0.1743 | x1 = 0.2657 | x1 = 0.3602 | x1 = 0.4578 | x1 = 0.5588 | x1 = 0.6633 | x1 = 0.7716 | x1 = 0.8837 | x1 = 1
293.15 K | 1034.9 | 1033.19 | 1031.46 | 1029.77 | 1027.85 | 1025.52 | 1023.19 | 1020.85 | 1018.55 | 1016.37
298.15 K | 1031.31 | 1029.67 | 1028 | 1026.34 | 1024.48 | 1022.17 | 1019.88 | 1017.57 | 1015.25 | 1013.04
303.15 K | 1027.73 | 1026.21 | 1024.62 | 1023.01 | 1021.19 | 1018.94 | 1016.79 | 1014.47 | 1012.17 | 1009.96
308.15 K | 1024.25 | 1022.83 | 1021.31 | 1019.74 | 1018 | 1015.76 | 1013.64 | 1011.33 | 1009.03 | 1006.75
313.15 K | 1020.28 | 1019 | 1017.64 | 1016.12 | 1014.43 | 1012.35 | 1010.33 | 1008.06 | 1005.78 | 1003.55
318.15 K | 1016.58 | 1015.49 | 1014.21 | 1012.83 | 1011.22 | 1009.28 | 1007.33 | 1005.16 | 1002.94 | 1000.72
323.15 K | 1012.91 | 1011.97 | 1010.78 | 1009.47 | 1007.97 | 1006.13 | 1004.3 | 1002.18 | 1000.03 | 997.8
328.15 K | 1009 | 1008.2 | 1007.11 | 1005.84 | 1004.39 | 1002.63 | 1000.83 | 998.81 | 996.69 | 994.41

CC(O)CO (stereo not drawn) [1,2-propanediol] + OCCCCO
[2], x2 = 0
Conditions | mass density [kg/m3]
293.15 K | 1036.57
298.15 K | 1032.86
303.15 K | 1029.15
308.15 K | 1025.57
313.15 K | 1021.44
318.15 K | 1017.59
323.15 K | 1013.74
328.15 K | 1009.71

OCCO [1,2-ethanediol] + OCCCCO
[2], x2 = 0
Conditions | mass density [kg/m3]
293.15 K | 1113.55
303.15 K | 1106.82
313.15 K | 1099.8
323.15 K | 1092.59

OCCCCO [1,4-butanediol] + OCCCO
[2], x1 = 1
Conditions | mass density [kg/m3]
293.15 K | 1016.37
298.15 K | 1013.04
303.15 K | 1009.96
308.15 K | 1006.75
313.15 K | 1003.55
318.15 K | 1000.72
323.15 K | 997.8
328.15 K | 994.41

OCCCCO [1,4-butanediol] + OCCO
mass density [kg/m3], [2]
Conditions | x1 = 0.0711 | x1 = 0.1469 | x1 = 0.2279 | x1 = 0.3147 | x1 = 0.4078 | x1 = 0.5081 | x1 = 0.6164 | x1 = 0.7337 | x1 = 0.8611 | x1 = 1
293.15 K | 1102.71 | 1092.13 | 1081.71 | 1071.48 | 1061.52 | 1051.91 | 1042.67 | 1033.74 | 1024.96 | 1016.37
298.15 K | 1099.09 | 1088.58 | 1078.21 | 1068.02 | 1058.12 | 1048.56 | 1039.34 | 1030.4 | 1021.64 | 1013.04
303.15 K | 1096.06 | 1085.57 | 1075.22 | 1065.04 | 1055.16 | 1045.58 | 1036.35 | 1027.39 | 1018.61 | 1009.96
308.15 K | 1092.51 | 1082.1 | 1071.84 | 1061.7 | 1051.85 | 1042.33 | 1033.12 | 1024.17 | 1015.41 | 1006.75
313.15 K | 1089.15 | 1078.8 | 1068.56 | 1058.5 | 1048.65 | 1039.15 | 1029.95 | 1020.99 | 1012.22 | 1003.55
318.15 K | 1085.69 | 1075.44 | 1065.32 | 1055.33 | 1045.62 | 1036.15 | 1027.01 | 1018.1 | 1009.36 | 1000.72
323.15 K | 1082.18 | 1072.03 | 1061.97 | 1052.09 | 1042.43 | 1033.05 | 1023.96 | 1015.11 | 1006.4 | 997.8
328.15 K | 1078.33 | 1068.25 | 1058.28 | 1048.46 | 1038.86 | 1029.53 | 1020.51 | 1011.66 | 1002.99 | 994.41

OCCCO [propan-1,3-diol]
[1]
Conditions | mass density [kg/m3]
293.15 K | 1053.66
298.15 K | 1050.29
303.15 K | 1047.09
308.15 K | 1043.92
313.15 K | 1040.61
318.15 K | 1037.6
323.15 K | 1034.51
328.15 K | 1031

OCCCCO [1,4-butanediol]
[1]
Conditions | mass density [kg/m3]
293.15 K | 1016.37
298.15 K | 1013.04
303.15 K | 1009.96
308.15 K | 1006.75
313.15 K | 1003.55
318.15 K | 1000.72
323.15 K | 997.8
328.15 K | 994.41

OCCCO [propan-1,3-diol] + OCCCCO
mass density [kg/m3], [2]
Conditions | 293.15 K | 298.15 K | 303.15 K | 308.15 K | 313.15 K | 318.15 K | 323.15 K | 328.15 K
x2 = 0 | 1053.66 | 1050.29 | 1047.09 | 1043.92 | 1040.61 | 1037.6 | 1034.51 | 1031
x2 = 0.0858 | 1049.89 | 1046.56 | 1043.39 | 1040.26 | 1036.99 | 1034.04 | 1030.99 | 1027.53
x2 = 0.1743 | 1046.21 | 1042.87 | 1039.74 | 1036.61 | 1033.39 | 1030.48 | 1027.5 | 1024.08
x2 = 0.2657 | 1042.49 | 1039.2 | 1036.07 | 1032.95 | 1029.75 | 1026.88 | 1023.9 | 1020.5
x2 = 0.3602 | 1038.78 | 1035.48 | 1032.39 | 1029.26 | 1026.07 | 1023.21 | 1020.26 | 1016.86
x2 = 0.4578 | 1035.05 | 1031.77 | 1028.69 | 1025.57 | 1022.39 | 1019.53 | 1016.6 | 1013.22
x2 = 0.5523 | – | – | 1024.89 | – | – | – | – | –
x2 = 0.5588 | 1031.27 | 1027.98 | – | 1021.77 | 1018.61 | 1015.78 | 1012.86 | 1009.51
x2 = 0.6574 | – | – | 1021.16 | – | – | – | – | –
x2 = 0.6633 | 1027.52 | 1024.23 | – | 1018.03 | 1014.87 | 1012.06 | 1009.17 | 1005.8
x2 = 0.7669 | – | – | 1017.41 | – | – | – | – | –
x2 = 0.7716 | 1023.77 | 1020.48 | – | 1014.27 | 1011.08 | 1008.27 | 1005.36 | 1001.99
x2 = 0.881 | – | – | 1013.68 | – | – | – | – | –
x2 = 0.8837 | 1020.05 | 1016.74 | – | 1010.51 | 1007.33 | 1004.52 | 1001.61 | 998.24

CC(O)CO (stereo not drawn) [1,2-propanediol]
[1]
Conditions | mass density [kg/m3]
293.15 K | 1036.57
298.15 K | 1032.86
303.15 K | 1029.15
308.15 K | 1025.57
313.15 K | 1021.44
318.15 K | 1017.59
323.15 K | 1013.74
328.15 K | 1009.71
